Assay results as given in paper PMC3766616, “Coniferyl Ferulate, a Strong Inhibitor of Glutathione S-Transferase Isolated from Radix Angelicae sinensis, Reverses Multidrug Resistance and Downregulates P-Glycoprotein” (Evidence-based Complementary and Alternative Medicine : eCAM, 2013).

Target: T1, Glutathione S-transferase (mainly GSTP1-1, from human placenta) (Homo sapiens, UniProt P09211)
T1 construct: GST from human placenta (mainly GSTP1-1), Sigma
Test: GSH/CDNB conjugation assay at […] nm; Hanes plot kinetics
Format: biochemical

T1 sequence (P09211 2-210): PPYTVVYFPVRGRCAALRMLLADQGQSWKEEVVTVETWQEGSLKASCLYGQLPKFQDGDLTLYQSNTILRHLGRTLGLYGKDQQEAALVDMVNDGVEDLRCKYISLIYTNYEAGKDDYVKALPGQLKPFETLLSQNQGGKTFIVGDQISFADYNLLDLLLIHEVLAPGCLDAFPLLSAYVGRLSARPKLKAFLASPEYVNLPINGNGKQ

COc1cc(/C=C/COC(=O)/C=C/c2ccc(O)c(OC)c2)ccc1O [CF, Coniferyl ferulate]
IC50: 300 nM
